SMILES strings stand for the structures. A value given as a limit tells only on which side of the number the result lay.

Assay [1] deals with human DPP1 enzyme (Homo sapiens (Human), UniProt P53634). Nature of the assay: Human DPP1 enzyme IC50 assay. The class given is biochemical. Conditions: recombinant human DPP1, H-Gly-Arg-AMC substrate 400 μM. A digest of the protocol:
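Fluorogenic readout (350/450 nm, every 5 min over 90 min, 37°C) of H-Gly-Arg-AMC cleavage at 400 μM final substrate. Compounds met activated DPP1 first for a 10-min 37°C pre-incubation in MES buffer pH 6.0 with DTT, 1% DMSO final. Four-parameter sigmoidal fit gave IC50.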

The target of assay [2] is active mouse DPP1 enzyme (Mus musculus (Mouse), UniProt P97821). Nature of the assay: Mouse DPP1 enzyme IC50 assay. The class given is biochemical. Conditions: active mouse DPP1, H-Gly-Arg-AMC substrate 400 μM. On the procedure:
25 μL of compound in Assay Buffer plus 5% DMSO was first added to 50 μL of active mouse DPP1 enzyme at a concentration of 62.5 pg/μL and allowed to pre-incubate for 10 minutes at 37° C. after which 50 μL of 1000 μM H-Gly-Arg-AMC substrate (Bachem; St. Torrance, CA) was added, giving final substrate concentration of 400 μM and a final DMSO concentration of 1%. Substrate cleavage was measured for 90 minutes at 37° C., with fluorescence at Excitation/Emission 350/450 nm measured every 5 minutes. DPP1 concentration was interpolated based on its activity relative to a standard curve of recombinant active mouse DPP1 enzyme. IC50 values for each compound were calculated via the XLFit (IDBS Version 5.3.1.3) Add-On to Microsoft Excel using the four parameter fit equation y=(A+((B-A)/(1+((C/x)^D)))), which appears as equation number 205 (4 Parameter Logistic Model or Sigmoidal Dose-Response Model) in XLFit. Default constraints were used for each Parameter.

For assay [3], the target named is DPP1 in HL-60 cells (Homo sapiens (Human), UniProt P53634). Nature of the assay: DPP1 Cell IC50 assay. The class given is cell-based. Conditions: H-Gly-Phe-AFC substrate, 60 min pre-incubation. Put shortly:
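HL-60 cells (5×10^5 live cells/mL in PBS) were pre-incubated with compound in 0.5% DMSO for 60 min at 37 °C, 5% CO2, with shaking, then given 500 μM H-Gly-Phe-AFC solution for 30 min. Fluorescence was read at 400/505 nm. % inhibition was taken against vehicle wells, and IC50 came from a four-parameter logistic fit.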

Chain of human DPP1 enzyme (P53634 25-134): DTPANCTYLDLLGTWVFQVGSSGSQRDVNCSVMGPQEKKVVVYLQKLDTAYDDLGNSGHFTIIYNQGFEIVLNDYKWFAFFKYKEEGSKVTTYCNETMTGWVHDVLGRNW
Chain of human DPP1 enzyme (P53634 231-394): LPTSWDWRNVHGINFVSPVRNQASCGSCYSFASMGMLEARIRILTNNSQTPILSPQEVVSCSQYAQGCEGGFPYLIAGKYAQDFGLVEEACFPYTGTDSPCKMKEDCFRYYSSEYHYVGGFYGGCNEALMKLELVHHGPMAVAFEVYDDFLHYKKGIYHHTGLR
Chain of human DPP1 enzyme (P53634 395-463): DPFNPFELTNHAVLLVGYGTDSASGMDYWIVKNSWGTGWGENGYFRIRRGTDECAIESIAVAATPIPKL
Chain of DPP1 in HL-60 cells (P53634 25-134): as the sequence (P53634 25-134) above
Chain of DPP1 in HL-60 cells (P53634 231-394): as the sequence (P53634 231-394) above
Chain of DPP1 in HL-60 cells (P53634 395-463): as the sequence (P53634 395-463) above
Chain of active mouse DPP1 enzyme (P97821 25-134): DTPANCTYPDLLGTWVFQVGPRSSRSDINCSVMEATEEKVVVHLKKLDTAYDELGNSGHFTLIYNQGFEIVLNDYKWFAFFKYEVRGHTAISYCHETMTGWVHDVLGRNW
Chain of active mouse DPP1 enzyme (P97821 231-393): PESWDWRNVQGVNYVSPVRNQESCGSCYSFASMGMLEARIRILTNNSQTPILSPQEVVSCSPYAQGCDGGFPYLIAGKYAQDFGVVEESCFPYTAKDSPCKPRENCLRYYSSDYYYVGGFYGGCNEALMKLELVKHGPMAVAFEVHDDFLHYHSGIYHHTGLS
Chain of active mouse DPP1 enzyme (P97821 394-462): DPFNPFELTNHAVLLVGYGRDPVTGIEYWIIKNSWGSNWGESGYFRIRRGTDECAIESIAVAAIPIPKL

Take `C=CC[C@@H](N)CC(=O)N[C@H](C#N)Cc1ccc(-c2ccc3oc(=O)n(C)c3c2)cc1` [Compound 165, (3R)-3-amino-N-[(1S)-1-cyano-2-[4-(3-methyl-2-oxo-2,3-dihydro-1,3-benzoxazol-5-yl)phenyl]ethyl]hex-5-enamide]: the figures for the IC50 in assay [1], in assay [2] and in assay [3] were at least 15 nM, at least 20 nM and at least 2.5 nM, respectively.

Take `C=CCC(CN)C(=O)N[C@H](C#N)Cc1ccc(-c2ccc3oc(=O)n(C)c3c2)cc1` (stereo partly drawn) [Compound 167, 2-(aminomethyl)-N-[(1S)-1-cyano-2-[4-(3-methyl-2-oxo-2,3-dihydro-1,3-benzoxazol-5-yl)phenyl]ethyl]pent-4-enamide]: the half-inhibitory concentration (IC50) in assay [1] is at least 15 nM; in assay [2] it was at least 20 nM; in assay [3], at least 2.5 nM.

As for `C[C@H](O)[C@@](C)(N)C(=O)N[C@H](C#N)Cc1ccc(-c2ccc3oc(=O)n(C)c3c2)cc1` [Compound 171D, (2R,3S)-2-amino-N-[(1S)-1-cyano-2-[4-(3-methyl-2-oxo-1,3-benzoxazol-5-yl)phenyl]ethyl]-3-hydroxy-2-methylbutanamide], the 50% inhibitory concentration (IC50) in assay [1] is 5 to 15 nM; in assay [2] it was 5 to 20 nM; in assay [3], at least 2.5 nM.

With `Cn1c(=O)oc2ccc(-c3ccc(C[C@@H](C#N)NC(=O)C[C@H](N)Cc4cccs4)cc3)cc21` [Compound 182, (3S)-3-amino-N-[(1S)-1-cyano-2-[4-(3-methyl-2-oxo-2,3-dihydro-1,3-benzoxazol-5-yl)phenyl]ethyl]-4-(thiophen-2-yl)butanamide], the IC50 in assay [1] was at least 15 nM; in assay [2], at least 20 nM; in assay [3] it was at least 2.5 nM.

As to `N#Cc1ccc(-c2ccc(C[C@@H](C#N)NC(=O)C3(N)CCOCC3)c(I)c2)cc1` [Compound 248, 4-amino-N-[(1S)-1-cyano-2-{4′-cyano-3-iodo-[1,1′-biphenyl]-4-yl}ethyl]oxane-4-carboxamide], the 50% inhibitory concentration (IC50) in assay [1] is at least 15 nM; in assay [2], at least 20 nM; in assay [3], at least 2.5 nM.

Values taken from US20260008758A1, “LINEAR DIPEPTIDYL PEPTIDASE 1 INHIBITORS AND USES THEREOF” (Insmed Incorporated, priority 2024, published 2026).
